Test results taken from publication PMC10053552, “Multiple Bioactivities of Peptides from Hydrolyzed Misgurnus anguillicaudatus” (Molecules, 2023).
Each block holds one molecule with its values, some of them ahead of it.

What was measured:
DPPH scavenging activity = assay type: biochemical; details: 0.5 mg/mL, glutathione at the same concentration
[1] = Hydroxyl radical scavenging activity; assay type: biochemical; details: 0.5 mg/mL; amount higher than that of glutathione at the same concentration
[2] = test system: pancreatic cholesterol esterase (CE); assay: Pancreatic CE inhibitory activity; assay type: biochemical; details: 1 mg/mL (Figure 6a); pNPB substrate, pH 7.2, 37 °C, 30 min, 405 nm
[3] = target: pancreatic cholesterol esterase (CE) (UniProt P19835)
[4] = target: angiotensin-converting enzyme (ACE) (UniProt P12821)
Chain of UniProt P12821 (P12821 30-1256): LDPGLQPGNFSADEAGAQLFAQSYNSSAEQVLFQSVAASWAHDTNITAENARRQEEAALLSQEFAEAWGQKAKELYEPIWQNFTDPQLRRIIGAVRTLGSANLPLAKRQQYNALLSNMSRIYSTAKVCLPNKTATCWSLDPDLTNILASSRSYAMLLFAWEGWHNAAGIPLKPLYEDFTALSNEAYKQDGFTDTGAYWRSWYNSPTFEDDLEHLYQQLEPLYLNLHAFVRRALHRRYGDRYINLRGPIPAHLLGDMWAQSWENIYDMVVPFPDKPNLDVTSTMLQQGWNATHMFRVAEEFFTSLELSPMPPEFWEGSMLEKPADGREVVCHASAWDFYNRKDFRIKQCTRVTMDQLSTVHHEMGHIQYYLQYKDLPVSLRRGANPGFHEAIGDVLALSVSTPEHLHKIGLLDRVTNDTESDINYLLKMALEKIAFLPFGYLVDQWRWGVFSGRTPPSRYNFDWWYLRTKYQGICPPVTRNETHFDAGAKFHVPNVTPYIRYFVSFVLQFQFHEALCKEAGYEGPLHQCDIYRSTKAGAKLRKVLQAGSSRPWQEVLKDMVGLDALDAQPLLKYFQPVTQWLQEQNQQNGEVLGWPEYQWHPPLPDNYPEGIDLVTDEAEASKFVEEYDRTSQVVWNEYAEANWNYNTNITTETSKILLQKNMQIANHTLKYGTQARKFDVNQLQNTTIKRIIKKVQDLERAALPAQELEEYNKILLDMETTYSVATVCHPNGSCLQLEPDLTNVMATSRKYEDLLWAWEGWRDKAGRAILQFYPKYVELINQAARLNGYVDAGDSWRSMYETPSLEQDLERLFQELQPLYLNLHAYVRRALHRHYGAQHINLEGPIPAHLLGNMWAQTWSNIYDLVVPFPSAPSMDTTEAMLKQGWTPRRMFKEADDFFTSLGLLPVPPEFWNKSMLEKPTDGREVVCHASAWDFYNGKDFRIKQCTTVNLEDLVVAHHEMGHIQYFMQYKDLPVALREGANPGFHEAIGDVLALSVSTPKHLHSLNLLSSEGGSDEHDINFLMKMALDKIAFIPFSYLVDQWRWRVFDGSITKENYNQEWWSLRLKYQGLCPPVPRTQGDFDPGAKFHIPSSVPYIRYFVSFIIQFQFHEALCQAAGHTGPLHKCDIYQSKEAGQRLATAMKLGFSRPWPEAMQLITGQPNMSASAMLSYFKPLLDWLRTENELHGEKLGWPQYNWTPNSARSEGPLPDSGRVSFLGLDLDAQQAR

Chain of UniProt P19835 (P19835 21-753): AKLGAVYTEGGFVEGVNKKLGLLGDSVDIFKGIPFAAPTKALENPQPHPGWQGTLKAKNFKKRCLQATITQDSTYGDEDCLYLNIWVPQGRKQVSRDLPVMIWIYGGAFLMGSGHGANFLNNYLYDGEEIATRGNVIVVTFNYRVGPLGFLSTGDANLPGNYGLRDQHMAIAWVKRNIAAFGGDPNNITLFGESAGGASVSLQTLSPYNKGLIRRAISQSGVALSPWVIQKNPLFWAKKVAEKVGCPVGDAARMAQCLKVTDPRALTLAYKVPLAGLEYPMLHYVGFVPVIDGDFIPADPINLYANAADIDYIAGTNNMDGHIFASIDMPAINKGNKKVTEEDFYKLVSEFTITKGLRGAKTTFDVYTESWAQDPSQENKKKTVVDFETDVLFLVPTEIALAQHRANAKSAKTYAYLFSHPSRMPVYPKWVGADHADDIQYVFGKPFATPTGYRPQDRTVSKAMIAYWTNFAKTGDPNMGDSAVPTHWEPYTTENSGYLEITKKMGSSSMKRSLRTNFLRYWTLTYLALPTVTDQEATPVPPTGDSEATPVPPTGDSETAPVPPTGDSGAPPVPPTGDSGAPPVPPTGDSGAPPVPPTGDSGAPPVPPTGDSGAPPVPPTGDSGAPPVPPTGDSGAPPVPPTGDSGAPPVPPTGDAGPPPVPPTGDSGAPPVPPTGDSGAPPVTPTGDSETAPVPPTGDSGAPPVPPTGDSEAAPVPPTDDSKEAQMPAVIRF

Molecule: SERDPSNIKWGDAGAQ [Peptide D-1, peptide … identified in loach hydrolysate component F2, solid-phase synthesized]
- DPPH scavenging activity as percentage of that of glutathione (DPPH scavenging activity): more than 90%
- Hydroxyl radical scavenging activity: excess over glutathione [1]: 15.87%

Molecule: NDHFVKL [Peptide D-3, peptide NDHFVKL identified in loach hydrolysate component F2, solid-phase synthesized]
- Pancreatic CE inhibition [2]: exhibited inhibitory effects on pancreatic CE
- DPPH scavenging activity as percentage of that of glutathione (DPPH scavenging activity): more than 90%

Molecule: DAGAGIAL [Peptide D-5, peptide DAGAGIAL identified in loach hydrolysate component F2, solid-phase synthesized]
- DPPH scavenging activity as percentage of that of glutathione (DPPH scavenging activity): more than 90%

- IC50 of pancreatic CE inhibition (enzyme activity, pNPB hydrolysis, absorbance at 405 nm, 37 °C, pH 7.2) [3]: 2.62 mM
Molecule: TVDGPSGKLWR [peptide D-2 (…)]

- ACE inhibitory activity, percent inhibition (FAPGG hydrolysis; peptide concentration not given) [4]: 92.1%
- IC50 of ACE inhibition (enzyme activity, FAPGG hydrolysis, absorbance at 340 nm, 37 °C, pH 8.3) [4]: 0.12 mM
Molecule: AFRVPTP [peptide D-4 (AFRVPTP)]
